Data reported in patent US20100075957A1, “AMINODIHYDROTHIAZINE DERIVATIVES SUBSTITUTED WITH A CYCLIC GROUP” (SHIONOGI & CO., LTD., priority 2007, published 2010).

molecular target: T1, Recombinant human BACE-1 (Homo sapiens, UniProt P56817); assay: Assay of β-secretase-inhibiting activity; assay type: biochemical; conditions: Recombinant human BACE-1 7.4 nM, substrate peptide 18 nM, pH 5.0, 30° C., 3 hours; Table 139; read-out: IC50;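 note: substrate is a peptide carrying biotin and europium cryptate, after the enzyme reaction, Streptavidin-XL665 is added and incubated 1 h at 30 °C before fluorescence reading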
T1 construct: purchased R&D Systems
T1 sequence (P56817 46-501): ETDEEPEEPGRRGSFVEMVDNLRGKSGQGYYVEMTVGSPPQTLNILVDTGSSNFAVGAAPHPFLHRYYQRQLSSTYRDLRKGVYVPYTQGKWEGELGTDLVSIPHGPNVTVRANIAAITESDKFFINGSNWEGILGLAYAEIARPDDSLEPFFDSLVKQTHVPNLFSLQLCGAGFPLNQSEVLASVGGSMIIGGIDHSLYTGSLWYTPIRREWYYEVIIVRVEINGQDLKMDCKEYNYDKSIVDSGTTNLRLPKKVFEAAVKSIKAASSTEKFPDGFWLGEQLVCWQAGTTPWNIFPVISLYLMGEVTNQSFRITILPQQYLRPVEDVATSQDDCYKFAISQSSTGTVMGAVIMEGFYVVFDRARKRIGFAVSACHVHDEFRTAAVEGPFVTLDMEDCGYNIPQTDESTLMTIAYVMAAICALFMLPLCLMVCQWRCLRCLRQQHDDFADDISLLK

| Structure (SMILES) | IC50 |
| --- | --- |
| C[C@@]1(c2cc(NC(=O)c3cnc(-c4ccco4)cn3)ccc2F)CCSC(N)=N1 [Compound 136] | 110 nM |
| Cc1ccc(NC(=O)c2cnc(Cl)cn2)cc1C1(C)CCSC(N)=N1 (stereo not shown) [Compound 141] | 120 nM |
| C[C@@]1(c2cc(NC(=O)COc3ccccc3O)ccc2F)CCSC(N)=N1 [Compound 149] | 9250 nM |
| C[C@@]1(c2cc(NC(=O)CCc3cccc(N)c3)ccc2F)CCSC(N)=N1 [Compound 150] | 2480 nM |
| Cc1cc(SCC(=O)Nc2ccc(F)c([C@]3(C)CCSC(N)=N3)c2)nc(N)n1 [Compound 151] | 6770 nM |
| C[C@@]1(c2cc(NC(=O)CCc3ccc(O)c(O)c3)ccc2F)CCSC(N)=N1 [Compound 155] | 5960 nM |
| C[C@@]1(c2cc(NC(=O)CSc3nccc(O)n3)ccc2F)CCSC(N)=N1 [Compound 163] | 6790 nM |
| COCCOCCOc1cnc(C(=O)Nc2ccc(F)c([C@]3(C)CCSC(N)=N3)c2)cn1 [Compound 164] | 80 nM |

same assay, conditions: Recombinant human BACE-1 7.4 nM, substrate peptide 18 nM, pH 5.0, 30° C., 3 hours; Table 140; read-out: IC50

| Structure (SMILES) | IC50 |
| --- | --- |
| Cc1nc(C(=O)Nc2cncc([C@]3(C)CCSC(N)=N3)c2)c(C)o1 [Compound 461] | 30 nM |
| Cc1cc2cc(NC(=O)c3ccc(OCCO)cn3)cc([C@]3(C)CCSC(N)=N3)c2o1 [Compound 464] | 430 nM |
| Cc1cnc(C(=O)Nc2cc([C@]3(C)CCSC(N)=N3)c3oc(C)cc3c2)cn1 [Compound 468] | 20 nM |
| COc1cc(C(=O)Nc2cncc([C@]3(C)CCSC(N)=N3)c2)n(C)n1 [Compound 473] | 170 nM |
| Cn1nc(Cl)cc1C(=O)Nc1cncc([C@]2(C)CCSC(N)=N2)c1 [Compound 478] | 80 nM |
| Cc1nnsc1C(=O)Nc1ccc(F)c([C@]2(C)CCSC(N)=N2)c1 [Compound 481] | 50 nM |
| C[C@@]1(c2cc(NC(=O)c3nc4cnccc4[nH]3)ccc2F)CCSC(N)=N1 [Compound 484] | 290 nM |
| Cc1cc(C(=O)Nc2ccc(F)c([C@]3(C)CCSC(N)=N3)c2)nn1C [Compound 488] | 260 nM |
| C[C@@]1(c2cc(NC(=O)c3ncc(O)cc3F)ccc2F)CCSC(N)=N1 [Compound 491] | 90 nM |
| Cn1cc(-c2cnc(C(=O)Nc3ccc(F)c([C@]4(C)CCSC(N)=N4)c3)cn2)cn1 [Compound 494] | 30 nM |
| Cc1nc(Br)sc1C(=O)Nc1cncc([C@]2(C)CCSC(N)=N2)c1 [Compound 497] | 90 nM |
| C[C@@]1(c2cc(NC(=O)c3cn4ccccc4n3)ccc2F)CCSC(N)=N1 [Compound 502] | 40 nM |
| Cc1nc(C(=O)Nc2ccc(F)c([C@]3(C)CCSC(N)=N3)c2)cs1 [Compound 505] | 30 nM |
| Cc1ncc(C(=O)Nc2ccc(F)c([C@]3(C)CCSC(N)=N3)c2)s1 [Compound 508] | 40 nM |
| C[C@@]1(c2cncc(NC(=O)c3ccc(Br)s3)c2)CCSC(N)=N1 [Compound 514] | 240 nM |
| C[C@@]1(c2cc(NC(=O)c3cnc(Cl)cn3)ccc2Br)CCSC(N)=N1 [Compound 517] | 130 nM |
| C[C@@]1(c2cc(NC(=O)c3cc4nccnc4s3)ccc2F)CCSC(N)=N1 [Compound 521] | 180 nM |

same assay, conditions: Recombinant human BACE-1 7.4 nM, substrate peptide 18 nM, pH 5.0, 30° C., 3 hours; time-resolved fluorescence ratio 665/620; read-out: IC50 values (50% inhibitory concentration against the enzymatic activity)

| Structure (SMILES) | IC50 |
| --- | --- |
| C#CCOc1cnc(C(=O)Nc2ccc(F)c([C@]3(C)CCSC(N)=N3)c2)cn1 [Compound 133] | ≤ 1000 nM |
| CCOc1cnc(C(=O)Nc2ccc(F)c([C@]3(C)CCSC(N)=N3)c2)cn1 [Compound 134] | ≤ 1000 nM |
| C[C@@]1(c2cc(NC(=O)c3ccc(OC(F)F)cn3)ccc2F)CCSC(N)=N1 [Compound 135] | ≤ 1000 nM |
| CC#CCOc1cnc(C(=O)Nc2ccc(C)c(C3(C)CCSC(N)=N3)c2)cn1 (stereo not shown) [Compound 142] | ≤ 1000 nM |
| Cc1cnc(C(=O)Nc2cc(F)c(F)c(C3(C)CCSC(N)=N3)c2)cn1 (stereo not shown) [Compound 143] | ≤ 1000 nM |
| CC1(c2cc(NC(=O)c3cnc(Cl)cn3)cc(F)c2F)CCSC(N)=N1 (stereo not shown) [Compound 144] | ≤ 1000 nM |
| CC#CCOc1cnc(C(=O)Nc2cc(F)c(F)c(C3(C)CCSC(N)=N3)c2)cn1 (stereo not shown) [Compound 145] | ≤ 1000 nM |
| C[C@@]1(c2cncc(NC(=O)c3ccc(Cl)cn3)c2)CCSC(N)=N1 [Compound 152] | ≤ 1000 nM |
| C[C@@]1(c2cc(NC(=O)c3nccnc3C(N)=O)ccc2F)CCSC(N)=N1 [Compound 157] | ≤ 1000 nM |
| C[C@@]1(c2cc(NC(=O)c3cnc(-c4ccoc4)cn3)ccc2F)CCSC(N)=N1 [Compound 158] | ≤ 1000 nM |
| C[C@@]1(c2cc(NC(=O)c3cnc(/C=C/CO)cn3)ccc2F)CCSC(N)=N1 [Compound 162] | ≤ 1000 nM |
| C[C@@]1(c2cc(NC(=O)c3ncc(OCC(F)(F)F)nc3N)ccc2F)CCSC(N)=N1 [Compound 165] | ≤ 1000 nM |
| Cc1nc(C(=O)Nc2ccc(F)c([C@]3(C)CCSC(N)=N3)c2)co1 [Compound 462] | ≤ 1000 nM |
| Cc1cc(C(=O)Nc2ccc(F)c([C@]3(C)CCSC(N)=N3)c2)n(C)n1 [Compound 463] | ≤ 1000 nM |
| COCCOc1cnc(C(=O)Nc2cc([C@]3(C)CCSC(N)=N3)c3oc(C)cc3c2)cn1 [Compound 465] | ≤ 1000 nM |
| Cc1cc(C(=O)Nc2cncc([C@]3(C)CCSC(N)=N3)c2)n(C(C)(C)C)n1 [Compound 466] | ≤ 1000 nM |
| C[C@@]1(c2cc(NC(=O)c3coc(Cl)n3)ccc2F)CCSC(N)=N1 [Compound 467] | ≤ 1000 nM |
| CC#CCOc1cnc(C(=O)Nc2cc([C@]3(C)CCSC(N)=N3)c3oc(C)cc3c2)cn1 [Compound 469] | ≤ 1000 nM |
| C[C@@]1(c2cc(NC(=O)c3coc(CCl)n3)ccc2F)CCSC(N)=N1 [Compound 470] | ≤ 1000 nM |

| Structure (SMILES) | IC50 |
| --- | --- |
| Cc1nc(C(=O)Nc2ccc(F)c([C@]3(C)CCSC(N)=N3)c2)c(C(F)(F)F)o1 [Compound 471] | ≤ 1000 nM |
| C[C@@]1(c2cc(NC(=O)C3=NNC(=O)CC3)ccc2F)CCSC(N)=N1 [Compound 472] | ≤ 1000 nM |
| Cc1cc(C(=O)Nc2cncc([C@]3(C)CCSC(N)=N3)c2)on1 [Compound 474] | ≤ 1000 nM |
| CN1N=C(C(=O)Nc2ccc(F)c([C@]3(C)CCSC(N)=N3)c2)CCC1=O [Compound 475] | ≤ 1000 nM |
| Cc1cc(C(=O)Nc2cncc([C@]3(C)CCSC(N)=N3)c2)n(C)n1 [Compound 476] | ≤ 1000 nM |
| CCN1N=C(C(=O)Nc2ccc(F)c([C@]3(C)CCSC(N)=N3)c2)CCC1=O [Compound 477] | ≤ 1000 nM |
| CCn1nc(C)cc1C(=O)Nc1cncc([C@]2(C)CCSC(N)=N2)c1 [Compound 479] | ≤ 1000 nM |
| Cc1cc(C(=O)Nc2cncc([C@]3(C)CCSC(N)=N3)c2)c(C)o1 [Compound 482] | ≤ 1000 nM |
| Cc1ccc(C(=O)Nc2cncc([C@]3(C)CCSC(N)=N3)c2)s1 [Compound 485] | ≤ 1000 nM |
| Cc1csc(C(=O)Nc2cncc([C@]3(C)CCSC(N)=N3)c2)c1 [Compound 486] | ≤ 1000 nM |
| Cc1ccsc1C(=O)Nc1cncc([C@]2(C)CCSC(N)=N2)c1 [Compound 487] | ≤ 1000 nM |
| COc1cnc(C(=O)Nc2ccc(F)c([C@]3(C)CCSC(N)=N3)c2)c(OC)c1 [Compound 489] | ≤ 1000 nM |
| C[C@@]1(c2cc(NC(=O)c3ccc(Cl)nn3)ccc2F)CCSC(N)=N1 [Compound 490] | ≤ 1000 nM |
| Cc1cnc(C(=O)Nc2ccc(Br)c(C3(C)CCSC(N)=N3)c2)cn1 (stereo not shown) [Compound 492] | ≤ 1000 nM |
| CSc1ccc(C(=O)Nc2cncc([C@]3(C)CCSC(N)=N3)c2)s1 [Compound 493] | ≤ 1000 nM |
| CCc1cc(C(=O)Nc2ccc(F)c([C@]3(C)CCSC(N)=N3)c2)on1 [Compound 495] | ≤ 1000 nM |
| C[C@@]1(c2cc(NC(=O)c3c[nH]nc3C3CC3)ccc2F)CCSC(N)=N1 [Compound 499] | ≤ 1000 nM |
| Cc1noc(C)c1C(=O)Nc1ccc(F)c([C@]2(C)CCSC(N)=N2)c1 [Compound 500] | ≤ 1000 nM |
| Cc1nc(C(=O)Nc2cncc([C@]3(C)CCSC(N)=N3)c2)c(C(F)(F)F)o1 [Compound 501] | ≤ 1000 nM |

| Structure (SMILES) | IC50 |
| --- | --- |
| Cc1cccnc1C(=O)Nc1ccc(F)c([C@]2(C)CCSC(N)=N2)c1 [Compound 503] | ≤ 1000 nM |
| C[C@@]1(c2cncc(NC(=O)c3ccc(Cl)s3)c2)CCSC(N)=N1 [Compound 504] | ≤ 1000 nM |
| Cc1ncsc1C(=O)Nc1ccc(F)c([C@]2(C)CCSC(N)=N2)c1 [Compound 506] | ≤ 1000 nM |
| Cc1cc(C(=O)Nc2ccc(F)c([C@]3(C)CCSC(N)=N3)c2)ns1 [Compound 507] | ≤ 1000 nM |
| Cc1ncc(C(=O)Nc2ccc(F)c([C@]3(C)CCSC(N)=N3)c2)s1 [Compound 508] | ≤ 1000 nM |
| C[C@@]1(c2cc(NC(=O)c3cnc(-c4ccc[nH]4)cn3)ccc2F)CCSC(N)=N1 [Compound 509] | ≤ 1000 nM |
| C[C@@]1(c2cc(NC(=O)c3ncccc3F)ccc2F)CCSC(N)=N1 [Compound 510] | ≤ 1000 nM |
| C[C@@]1(c2cc(NC(=O)c3ncccc3F)ccc2F)CCSC(N)=N1 [Compound 511] | ≤ 1000 nM |
| COc1cnc(C(=O)Nc2ccc(F)c([C@]3(C)CCSC(N)=N3)c2)c(F)c1 [Compound 512] | ≤ 1000 nM |
| C[C@@]1(c2cncc(NC(=O)c3sccc3Br)c2)CCSC(N)=N1 [Compound 515] | ≤ 1000 nM |
| C[C@@]1(c2cncc(NC(=O)c3cc(Br)cs3)c2)CCSC(N)=N1 [Compound 516] | ≤ 1000 nM |
| Cc1ccoc1C(=O)Nc1ccc(F)c([C@]2(C)CCSC(N)=N2)c1 [Compound 518] | ≤ 1000 nM |
| C[C@@]1(c2cc(NC(=O)c3cnc(-c4nccs4)cn3)ccc2F)CCSC(N)=N1 [Compound 519] | ≤ 1000 nM |
| CC(C)c1nnsc1C(=O)Nc1ccc(F)c(C2(C)CCSC(N)=N2)c1 (stereo not shown) [Compound 520] | ≤ 1000 nM |
| COCc1ccc(C(=O)Nc2ccc(F)c([C@]3(C)CCSC(N)=N3)c2)o1 [Compound 522] | ≤ 1000 nM |
| Cc1noc(C)c1-c1cnc(C(=O)Nc2ccc(F)c([C@]3(C)CCSC(N)=N3)c2)cn1 [Compound 523] | ≤ 1000 nM |
| COc1cscc1C(=O)Nc1ccc(F)c([C@]2(C)CCSC(N)=N2)c1 [Compound 524] | ≤ 1000 nM |
| CCOc1cnc(C(=O)Nc2ccc(F)c([C@]3(C)CCSC(N)=N3)c2)c(OCC)c1 [Compound 528] | ≤ 1000 nM |
| Cc1cc(C(=O)Nc2ccc(F)c([C@]3(C)CCSC(N)=N3)c2)oc1C [Compound 529] | ≤ 1000 nM |
